The record followed here is ChEMBL document CHEMBL1909046, “DrugMatrix in vitro pharmacology data”.

The target in data set [1] is Beta-2 adrenergic receptor (Homo sapiens, UniProt P07550). The experiment in a line: DRUGMATRIX: Adrenergic beta2 radioligand binding (ligand: [3H] CGP-12177). In kind it is cell membranes, CHO, Membrane. To be noted: cho; Not Active = under 50% inhibition at 10 µM.
For data set [2], the target named is Beta-3 adrenergic receptor (Homo sapiens, UniProt P13945). The experiment in a line: DRUGMATRIX: Adrenergic beta3 radioligand binding (ligand: [125I] Cyanopindolol). In kind it is cell membranes, HEK293, Membrane. To be noted: Not Active = under 50% inhibition at 10 µM.
Chain of Beta-3 adrenergic receptor (P13945 whole entry): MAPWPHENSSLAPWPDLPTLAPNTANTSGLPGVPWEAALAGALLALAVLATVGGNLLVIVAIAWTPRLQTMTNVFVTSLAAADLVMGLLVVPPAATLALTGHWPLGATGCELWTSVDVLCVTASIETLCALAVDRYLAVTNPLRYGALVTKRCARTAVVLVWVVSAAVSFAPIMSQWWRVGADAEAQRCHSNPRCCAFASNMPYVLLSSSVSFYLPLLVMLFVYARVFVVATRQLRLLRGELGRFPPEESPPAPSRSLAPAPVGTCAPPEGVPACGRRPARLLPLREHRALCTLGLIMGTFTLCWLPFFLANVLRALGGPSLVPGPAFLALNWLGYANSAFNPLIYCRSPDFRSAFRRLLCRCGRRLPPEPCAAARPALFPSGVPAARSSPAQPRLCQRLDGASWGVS
In data set [3] the target is T1, Thromboxane-A synthase (Homo sapiens, UniProt P24557).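 Also: enzyme inhibition assay with PGH2 supplied as substrate; in other assays of this panel Not Active means under 50% inhibition at 10 µM.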
T1 sequence (P24557 whole entry): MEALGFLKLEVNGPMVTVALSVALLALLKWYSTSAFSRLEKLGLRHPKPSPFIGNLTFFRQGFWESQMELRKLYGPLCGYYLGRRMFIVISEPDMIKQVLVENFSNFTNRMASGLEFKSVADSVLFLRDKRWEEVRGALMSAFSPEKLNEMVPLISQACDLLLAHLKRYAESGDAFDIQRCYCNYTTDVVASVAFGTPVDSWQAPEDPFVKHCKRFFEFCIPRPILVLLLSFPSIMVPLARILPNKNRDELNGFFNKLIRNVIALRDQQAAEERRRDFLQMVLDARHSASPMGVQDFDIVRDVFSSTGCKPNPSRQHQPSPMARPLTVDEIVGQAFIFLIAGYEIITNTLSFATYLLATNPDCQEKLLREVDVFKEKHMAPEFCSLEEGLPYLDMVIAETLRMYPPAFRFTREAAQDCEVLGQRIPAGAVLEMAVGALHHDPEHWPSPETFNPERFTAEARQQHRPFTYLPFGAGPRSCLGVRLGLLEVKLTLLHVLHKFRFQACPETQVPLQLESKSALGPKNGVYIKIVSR
Description: biochemical. Format: tissue-based, Platelet.

Data set [4] concerns the target T2, Vasoactive intestinal polypeptide receptor 1 (Homo sapiens, UniProt P32241). Also: in other assays of this panel Not Active means under 50% inhibition at 10 µM.
T2 sequence (P32241 whole entry): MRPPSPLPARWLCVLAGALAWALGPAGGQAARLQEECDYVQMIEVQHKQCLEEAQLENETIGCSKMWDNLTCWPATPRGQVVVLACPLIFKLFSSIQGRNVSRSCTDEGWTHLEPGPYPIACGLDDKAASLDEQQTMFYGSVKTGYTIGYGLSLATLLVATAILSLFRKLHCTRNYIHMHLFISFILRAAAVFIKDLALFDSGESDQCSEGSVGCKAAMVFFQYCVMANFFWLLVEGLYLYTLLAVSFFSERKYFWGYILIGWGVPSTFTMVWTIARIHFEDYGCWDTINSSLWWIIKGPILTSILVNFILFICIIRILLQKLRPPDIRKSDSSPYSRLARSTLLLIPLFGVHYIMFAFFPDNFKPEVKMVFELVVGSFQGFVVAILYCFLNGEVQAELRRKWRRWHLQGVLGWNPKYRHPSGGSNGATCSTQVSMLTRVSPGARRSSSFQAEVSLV
In kind it is cell membranes, Membrane. To be noted: ht-29.

For data set [5], the target named is Protein kinase C alpha type (Homo sapiens, UniProt P17252). Format: cell-based. To be noted: sf9.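 Also: inhibition of PKCalpha kinase activity measured in an enzyme assay with histone as the phosphorylation substrate; in other assays of this panel Not Active means under 50% inhibition at 10 µM.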
Data set [6] addresses Receptor tyrosine-protein kinase erbB-2 (Homo sapiens, UniProt P04626). The experiment in a line: biochemical. Format: cell-based, Insect cells.
Data set [7] concerns the target Cytochrome P450 2E1 (Homo sapiens, UniProt P05181). As to conditions: bti-tn-5b1-4. Also: in other assays of this panel Not Active means under 50% inhibition at 10 µM.

Chain of Cytochrome P450 2E1 (P05181 whole entry): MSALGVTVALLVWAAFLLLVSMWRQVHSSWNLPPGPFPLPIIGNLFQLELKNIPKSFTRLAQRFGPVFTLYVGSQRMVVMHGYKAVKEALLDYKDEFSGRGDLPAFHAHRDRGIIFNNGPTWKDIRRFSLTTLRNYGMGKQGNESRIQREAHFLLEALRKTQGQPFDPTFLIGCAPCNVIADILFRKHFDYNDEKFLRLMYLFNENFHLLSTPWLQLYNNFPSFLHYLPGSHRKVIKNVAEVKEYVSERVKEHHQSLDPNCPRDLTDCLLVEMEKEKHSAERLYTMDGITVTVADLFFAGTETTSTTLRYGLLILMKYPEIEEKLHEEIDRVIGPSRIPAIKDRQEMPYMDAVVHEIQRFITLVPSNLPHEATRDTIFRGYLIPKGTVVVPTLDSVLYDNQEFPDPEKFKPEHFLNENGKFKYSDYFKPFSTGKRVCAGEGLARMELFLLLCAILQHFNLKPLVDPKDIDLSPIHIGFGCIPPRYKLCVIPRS
Chain of Receptor tyrosine-protein kinase erbB-2 (P04626 whole entry): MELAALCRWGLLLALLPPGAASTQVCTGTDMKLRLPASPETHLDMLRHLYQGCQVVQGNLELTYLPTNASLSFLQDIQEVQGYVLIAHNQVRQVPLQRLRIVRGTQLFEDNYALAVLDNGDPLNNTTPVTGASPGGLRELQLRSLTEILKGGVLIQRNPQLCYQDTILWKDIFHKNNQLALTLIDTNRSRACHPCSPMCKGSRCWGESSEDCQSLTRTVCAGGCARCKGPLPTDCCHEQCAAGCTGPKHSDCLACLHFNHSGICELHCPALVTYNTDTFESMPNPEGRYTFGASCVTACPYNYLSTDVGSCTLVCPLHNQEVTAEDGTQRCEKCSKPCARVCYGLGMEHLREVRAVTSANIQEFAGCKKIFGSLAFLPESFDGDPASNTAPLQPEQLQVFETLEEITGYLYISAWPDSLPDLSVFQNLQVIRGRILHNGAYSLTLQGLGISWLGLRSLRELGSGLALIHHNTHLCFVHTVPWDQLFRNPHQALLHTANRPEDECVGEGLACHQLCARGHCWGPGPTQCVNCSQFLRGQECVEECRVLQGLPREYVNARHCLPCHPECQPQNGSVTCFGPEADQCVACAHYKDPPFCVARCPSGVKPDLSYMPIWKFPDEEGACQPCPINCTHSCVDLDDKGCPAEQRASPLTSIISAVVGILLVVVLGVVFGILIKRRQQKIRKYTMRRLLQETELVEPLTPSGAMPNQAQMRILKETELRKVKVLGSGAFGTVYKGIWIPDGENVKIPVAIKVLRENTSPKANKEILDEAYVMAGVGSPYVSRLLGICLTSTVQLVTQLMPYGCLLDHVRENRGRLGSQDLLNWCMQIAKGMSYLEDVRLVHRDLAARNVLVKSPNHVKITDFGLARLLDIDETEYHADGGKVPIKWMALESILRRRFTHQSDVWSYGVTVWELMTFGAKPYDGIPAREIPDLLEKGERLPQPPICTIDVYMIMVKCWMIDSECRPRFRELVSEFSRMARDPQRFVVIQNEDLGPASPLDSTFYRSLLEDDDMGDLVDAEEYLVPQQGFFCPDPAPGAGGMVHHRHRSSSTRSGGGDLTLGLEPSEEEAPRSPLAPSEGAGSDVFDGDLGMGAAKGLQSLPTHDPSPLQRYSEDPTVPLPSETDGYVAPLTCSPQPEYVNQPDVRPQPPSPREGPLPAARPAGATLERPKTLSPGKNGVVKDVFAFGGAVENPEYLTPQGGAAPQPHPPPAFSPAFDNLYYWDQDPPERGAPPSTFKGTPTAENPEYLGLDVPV

As usually defined, the IC50 is the concentration that inhibits the measured activity by half. As a reminder, the Ki is the equilibrium dissociation constant of an inhibitor or competing ligand from its target. With `CCOc1nc2cccc(C(=O)O)c2n1Cc1ccc(-c2ccccc2-c2nnn[nH]2)cc1`, the IC50 result in data set [1] was “Not Active”; in data set [2] (read-out: IC50), 4.3 µM; in data set [3] (read-out: IC50), 3.06 µM; in data set [4] it was “Not Active”; in data set [5] it was “Not Active”; in data set [6] (read-out: IC50) it was 5.95 µM. The IC50 entry in data set [7] is “Not Active”. Besides, the Ki in data set [2] (read-out: Ki) is 3.2 µM; in data set [7], “Not Active”.

For `O=C(O)CCCc1cccs1`, the half-maximal inhibitory concentration (IC50) entry in data set [1], in data set [2] (hek293), in data set [3] (platelet), in data set [4], in data set [5] and in data set [6] (insect cells) was “Not Active” in each case. In addition, the IC50 result in data set [7] is recorded as “Not Active”. Moreover, the Ki result in data set [7] is on record as “Not Active”.

For the compound `COc1ccccc1N`, the half-inhibitory concentration (IC50) result in data set [1], in data set [2] (hek293), in data set [3] (platelet), in data set [4], in data set [5] and in data set [6] (insect cells) was “Not Active” each time. The half-inhibitory concentration (IC50) result in data set [7] is “Not Active”. In addition, in data set [7], the Ki result is on record as “Not Active”.

As for `O=C(c1ccccc1F)N1CCC(Cc2ccccc2)CC1`, the IC50 entry in data set [1], in data set [2] (hek293), in data set [3] (platelet), in data set [4], in data set [5] and in data set [6] (insect cells) was “Not Active” in each case. The IC50 entry in data set [7] is “Not Active”. Moreover, the Ki entry in data set [7] is “Not Active”.

For `Cc1c(O)cccc1C(=O)N[C@@H](CSc1ccccc1)[C@H](O)CN1C[C@H]2CCCC[C@H]2C[C@H]1C(=O)NC(C)(C)C`, the 50% inhibitory concentration (IC50) result is “Not Active” in data set [1]; 34.1 µM in data set [2] (read-out: IC50); 21.1 µM in data set [3] (read-out: IC50); “Not Active” in data set [4]; “Not Active” in data set [5]; “Not Active” in data set [6] (insect cells). Also, the IC50 entry in data set [7] is “Not Active”. Further, the inhibitory constant (Ki) in data set [2] (read-out: Ki) is 25.6 µM; in data set [7], “Not Active”.

In the case of `NC12CC3CC(CC(C3)C1)C2` [AMANTADINE], the IC50 result in data set [1], in data set [2] (hek293), in data set [3] (platelet), in data set [4], in data set [5] and in data set [6] (insect cells) was “Not Active” each time.

Consider `ClC(Cl)(Cl)Cl` [CARBON TETRACHLORIDE], for which the IC50 result in data set [1], in data set [2] (hek293), in data set [3] (platelet), in data set [4], in data set [5] and in data set [6] (insect cells) was “Not Active” each time.

Turning to `CC(=O)OCC(=O)[C@@]12OC(C)(C)O[C@@H]1C[C@H]1[C@@H]3C[C@H](F)C4=CC(=O)C=C[C@]4(C)[C@@]3(F)[C@@H](O)C[C@@]12C` [FLUOCINONIDE], the 50% inhibitory concentration (IC50) result in data set [1], in data set [2] (hek293), in data set [3] (platelet), in data set [4], in data set [5] and in data set [6] (insect cells) was “Not Active” throughout.

As to `N[C@@H](Cn1ccc(=O)c(O)c1)C(=O)O` [L-MIMOSINE], the IC50 result in data set [1], in data set [2] (hek293), in data set [3] (platelet), in data set [4], in data set [5] and in data set [6] (insect cells) was “Not Active” throughout.

As for `C[C@@H]1C/C=C/C=C/C=C/C=C/[C@H](O[C@@H]2O[C@H](C)[C@@H](O)[C@H](N)[C@@H]2O)C[C@@H]2O[C@](O)(C[C@@H](O)C[C@H]3O[C@@H]3/C=C/C(=O)O1)C[C@H](O)[C@H]2C(=O)O` [NATAMYCIN], the IC50 result in data set [1], in data set [2] (hek293), in data set [3] (platelet), in data set [4], in data set [5] and in data set [6] (insect cells) was “Not Active” in each case.

Regarding COLISTIN, the IC50 result in data set [1], in data set [2] (hek293), in data set [3] (platelet), in data set [4], in data set [5] and in data set [7] was “Not Active” throughout. The Ki result in data set [1], in data set [2] (hek293), in data set [3] (platelet), in data set [4], in data set [5] and in data set [7] was “Not Active” each time.
